Test results from ChEMBL document CHEMBL2073804, “Transport of the beta -O-glucuronide conjugate of the tobacco-specific carcinogen 4-(methylnitrosamino)-1-(3-pyridyl)-1-butanol (NNAL) by the multidrug resistance protein 1 (MRP1). Requirement for glutathione or a non-sulfur-containing analog” (J Biol Chem, 2001).

Target: ATP-binding cassette sub-family C member 2 (Homo sapiens, UniProt Q92887)
Test: TP_TRANSPORTER: uptake in membrane vesicle from MRP2-expressing HEK293T cells
Type: functional, cell membranes
Settings: hek293

Sequence of ATP-binding cassette sub-family C member 2 (Q92887 whole entry): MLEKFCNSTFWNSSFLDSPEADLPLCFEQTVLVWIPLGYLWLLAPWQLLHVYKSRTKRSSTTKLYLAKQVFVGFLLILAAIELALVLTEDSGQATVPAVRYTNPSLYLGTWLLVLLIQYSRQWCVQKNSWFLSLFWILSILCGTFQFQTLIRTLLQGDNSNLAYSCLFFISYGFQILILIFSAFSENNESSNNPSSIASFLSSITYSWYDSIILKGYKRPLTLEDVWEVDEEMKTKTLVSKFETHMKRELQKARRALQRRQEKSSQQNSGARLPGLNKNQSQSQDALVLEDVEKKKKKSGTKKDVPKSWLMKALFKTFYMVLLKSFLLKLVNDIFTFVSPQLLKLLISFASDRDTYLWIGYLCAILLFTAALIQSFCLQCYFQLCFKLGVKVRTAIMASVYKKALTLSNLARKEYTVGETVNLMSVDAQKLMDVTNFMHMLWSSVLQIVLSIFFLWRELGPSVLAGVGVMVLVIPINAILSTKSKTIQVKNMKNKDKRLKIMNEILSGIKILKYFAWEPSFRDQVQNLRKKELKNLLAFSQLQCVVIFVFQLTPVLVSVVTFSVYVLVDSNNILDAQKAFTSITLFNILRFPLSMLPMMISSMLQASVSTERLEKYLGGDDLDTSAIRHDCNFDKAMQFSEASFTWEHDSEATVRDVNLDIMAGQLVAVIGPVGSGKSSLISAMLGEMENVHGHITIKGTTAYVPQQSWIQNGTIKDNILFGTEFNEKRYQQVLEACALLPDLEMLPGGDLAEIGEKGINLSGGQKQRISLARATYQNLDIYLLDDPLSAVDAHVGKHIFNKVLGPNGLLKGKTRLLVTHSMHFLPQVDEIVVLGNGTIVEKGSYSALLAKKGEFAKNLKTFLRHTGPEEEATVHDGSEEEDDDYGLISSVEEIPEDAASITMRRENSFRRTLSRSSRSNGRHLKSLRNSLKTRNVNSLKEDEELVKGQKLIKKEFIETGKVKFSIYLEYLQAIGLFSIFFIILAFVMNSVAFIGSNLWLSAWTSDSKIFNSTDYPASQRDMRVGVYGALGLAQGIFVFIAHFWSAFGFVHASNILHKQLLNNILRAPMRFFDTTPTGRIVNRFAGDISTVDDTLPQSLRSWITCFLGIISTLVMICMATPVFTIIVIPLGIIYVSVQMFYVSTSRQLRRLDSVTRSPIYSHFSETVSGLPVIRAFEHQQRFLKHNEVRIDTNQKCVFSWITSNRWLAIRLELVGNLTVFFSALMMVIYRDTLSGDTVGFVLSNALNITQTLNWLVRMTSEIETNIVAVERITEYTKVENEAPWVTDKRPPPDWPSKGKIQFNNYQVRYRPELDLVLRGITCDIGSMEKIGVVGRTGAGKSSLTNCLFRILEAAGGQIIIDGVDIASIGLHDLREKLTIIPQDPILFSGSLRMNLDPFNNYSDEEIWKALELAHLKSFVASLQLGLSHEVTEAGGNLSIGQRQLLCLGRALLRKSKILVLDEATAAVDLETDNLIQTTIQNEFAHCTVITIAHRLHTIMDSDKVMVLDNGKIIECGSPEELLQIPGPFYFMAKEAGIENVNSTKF

Activity: substrate [+]
Compound: CN(CCCC(C[C@@H]1O[C@H](C(=O)O)[C@@H](O)[C@H](O)[C@H]1O)c1cccnc1)N=O (stereo partly specified)
